Assay results as given in PubChem BioAssay AID463203 (Broad Institute, 2010).
The source made the active and inactive calls.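 The calls were made as follows: active = more than half of replicate measurements showing over 20% loss of kinase signal relative to plate controls; inconclusive = some but at most half of replicates over 20% loss; inactive = no replicate over 20% signal loss.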

Target: Glycogen synthase kinase-3 alpha (Homo sapiens) (UniProt P49840)
Test: concentration-response blocking of human GSK3A – biochemical, luminescence, cell-free homogeneous, retest, dose response (AID 463203)
Conditions: GSK-3 alpha enzyme, ADP-Glo luminescence, 60 min

Glycogen synthase kinase-3 alpha (Homo sapiens), sequence (P49840 whole entry, looked up): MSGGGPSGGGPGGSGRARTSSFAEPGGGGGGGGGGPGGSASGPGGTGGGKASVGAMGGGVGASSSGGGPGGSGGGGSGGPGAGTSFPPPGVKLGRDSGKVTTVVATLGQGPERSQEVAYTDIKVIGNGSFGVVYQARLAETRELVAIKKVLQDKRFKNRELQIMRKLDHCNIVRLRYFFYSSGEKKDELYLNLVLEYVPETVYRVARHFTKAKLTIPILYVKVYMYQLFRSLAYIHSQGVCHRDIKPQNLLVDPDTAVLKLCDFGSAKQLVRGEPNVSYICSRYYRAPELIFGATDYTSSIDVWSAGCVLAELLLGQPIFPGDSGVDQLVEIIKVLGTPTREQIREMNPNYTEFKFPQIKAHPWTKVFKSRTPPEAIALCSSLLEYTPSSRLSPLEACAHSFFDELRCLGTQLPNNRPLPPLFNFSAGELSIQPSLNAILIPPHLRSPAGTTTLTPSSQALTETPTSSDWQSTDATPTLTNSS

Compound	AC50
COc1ccc(Nc2nc(-c3ccccc3)cs2)cc1	> 30 µM (inactive)
CC(C)=CC(=O)NCc1c(Cl)cccc1-n1cccc1	> 30 µM (inactive)
COC(=O)c1ccc(CSc2nnc(SCc3ccc(C(=O)OC)o3)s2)o1	> 30 µM (inactive)
Cc1nc(SCCC(C)C)c([N+](=O)[O-])[nH]1	> 30 µM (inactive)
O=C(Nc1cccc(C(=O)N2CCOCC2)c1)c1cccnc1	> 30 µM (inactive)
CCC(=O)/C=C1\Sc2ccc(OC)cc2N1CCO	> 30 µM (inactive)
COC(=O)c1cn(C(=O)c2ccc(Cl)cc2)c2ccccc12	> 30 µM (inactive)
Cc1ccc2nc(Cl)c(/C=N/Nc3ccc(C(=O)O)cc3)cc2c1	> 30 µM (inactive)
CCOC(=O)C1CCN(c2c(C(=O)c3ccccc3)cnc3ccc(Cl)cc23)CC1	> 30 µM (inactive)
CCN(CC)c1ccc2ccc(=O)oc2c1	> 30 µM (inactive)
CCOc1ccc(N=C2NC(=O)SC2CC(=O)OC)cc1 (stereo not drawn)	> 30 µM (inactive)
O=c1[nH]c(CN2CCN(CCO)CC2)nc2ccccc12	> 30 µM (inactive)
Fc1ccccc1/C=N/Nc1cc(N2CCCCC2)ncn1	> 30 µM (inactive)
CN1CCCN(C(=O)CC(c2ccccc2)c2ccccc2)CC1	> 30 µM (inactive)
CCCn1c2ccccc2c2nc3ccccc3nc21	> 30 µM (inactive)
CN(C)CCCNc1oc(-c2ccccc2)nc1C#N	> 30 µM (inactive)
COc1ccc(OCc2nc(N)nc(Nc3ccccc3OC)n2)cc1	> 30 µM (inactive)
COc1ccc(C(=O)O/N=C(\N)c2ccccc2)cc1	25 µM
O=C(c1ccc(Cl)cc1)c1cnc(Nc2ccccc2)s1	> 30 µM (inactive)
CCOC(=O)c1nc(NCc2ccccc2F)c2ccccc2n1	> 30 µM (inactive)
CCc1nnc(NS(=O)(=O)c2ccc(N/C=C(\C=O)c3nc4cc(Cl)ccc4o3)cc2)s1	9.24 µM
O=C(Nc1ncc([N+](=O)[O-])s1)c1ccc2c(c1)OCO2	> 30 µM (inactive)

Compound	AC50
Cc1cc(N2CCN(c3ccccc3)CC2)n2ncnc2n1	> 30 µM (inactive)
O=C(Nc1cccc(F)c1)C1CCCN1S(=O)(=O)c1cccc2cccnc12 (stereo not drawn)	11.8 µM
O=C(CSc1n[nH]c(=O)n1-c1ccc2c(c1)OCCO2)Nc1ccccc1	> 30 µM (inactive)
CC(=O)Nc1ccc(Oc2ccc3c(c2)C(=O)NC3=O)cc1	25 µM
COCCn1c(SCC(=O)Nc2cc(C)on2)nc2ccccc21	> 30 µM (inactive)
C/C(CC(=O)Nc1ccc(Cl)cc1Cl)=N\NC(=O)C(=O)N1CCCC1	> 30 µM (inactive)
CC(C)(C)OC(=O)N1CCC(NC(=O)c2[nH]cnc2C(=O)Nc2ccon2)CC1	4.47 µM
CC(=O)c1sc(NC(=O)CN2C(=O)C3CCCCC3C2=O)nc1-c1ccccc1 (stereo not drawn)	8.54 µM
Cc1ccc2nc(-c3ccccc3N)[nH]c2c1	> 30 µM (inactive)
O=C(Nc1cccc(-c2cnc3ccccc3n2)c1)c1ccco1	> 30 µM (inactive)
COc1ccccc1N1C(=O)C2C(c3ccc(F)cc3)NN(C(=O)c3ccc(C)cc3)C2C1=O (stereo not drawn)	> 30 µM (inactive)
COc1ccc2[nH]c(=O)c3c(c2c1)OC(C)(C)C=C3	10.4 µM
COc1ccc(CCNc2nc(C)c(C(C)=O)s2)cc1OC	> 30 µM (inactive)
CCNC(=S)NNC(=O)Cc1ccccc1	> 30 µM (inactive)
NC(=O)c1ccc(NCCCN2CCOCC2)c([N+](=O)[O-])c1	> 30 µM (inactive)
N#Cc1c(-c2ccccc2)nc(SCc2ccc(Cl)cc2)[nH]c1=O	> 30 µM (inactive)
COc1cccc(Nc2nc(N)c([N+](=O)[O-])c(NCc3ccccc3)n2)c1	13.4 µM
CCOC(=O)c1nc(NCc2cccc(OC)c2)c2ccccc2n1	> 30 µM (inactive)
C[C@H](CO)N1C[C@H](C)[C@@H](CN(C)S(=O)(=O)c2ccc(F)cc2)Oc2c(NC(=O)Nc3ccccc3)cccc2C1=O	> 30 µM (inactive)
COc1cc(OC)cc(-c2nnc(SCc3c(F)cccc3Cl)o2)c1	> 30 µM (inactive)
O=C(COc1ccccc1Cl)NC1CC1	> 30 µM (inactive)
Cc1onc(-c2ccccc2Cl)c1C(=O)Nc1ccc(-c2cn3cccnc3n2)cc1	> 30 µM (inactive)

Compound	AC50
Cc1ccccc1/C=N/Nc1nc2ccccc2[nH]1	> 30 µM (inactive)
CCc1c(C)c(C#N)c2nc3ccccc3n2c1NCC1CCCO1 (stereo not drawn)	12.6 µM
Cc1ccc(Cn2nc(-c3ccccc3)nc2-c2ccccc2)cc1	> 30 µM (inactive)
CN(c1ccccc1)c1nc(N)c([N+](=O)[O-])c(Nc2ccccc2F)n1	> 30 µM (inactive)
O=C(Nc1ccccc1C(=O)N1CCOCC1)c1cccnc1	> 30 µM (inactive)
C/C(=C/c1oc2ccc(O)cc2c1[N+](=O)[O-])N(C)C	> 30 µM (inactive)
Cc1ccc(S(=O)(=O)Nc2ccc(O)c3ncccc23)cc1	> 30 µM (inactive)
Cc1cc(C)nc(NC(=O)c2ccc(Br)s2)n1	> 30 µM (inactive)
Cc1cc(OC(=O)c2c(C)cc(OC(=O)c3c(C)cc(O)cc3O)cc2O)cc(O)c1C(=O)O	> 30 µM (inactive)
CN(C)CCCNc1ccc(S(N)(=O)=O)cc1[N+](=O)[O-]	> 30 µM (inactive)
NC(=O)c1cc([N+](=O)[O-])ccc1NCc1cccc(N)c1	15.6 µM
Cc1sc2ncnc(NCCCN3CCCC3=O)c2c1C	21.5 µM
COc1cc(C2CC(=O)c3c([nH]c(C(=O)OCCOC(C)C)c3C)C2)cc(OC)c1OC (stereo not drawn)	> 30 µM (inactive)
O=C1CNC(=S)N1CCCn1ccnc1	> 30 µM (inactive)
CC1CCC[C@H](O)CCCCCc2cc(O)cc(O)c2C(=O)O1 (stereo partly drawn)	> 30 µM (inactive)
O=C(CSCc1ccc([N+](=O)[O-])cc1)NN=C1CCCCCC1	> 30 µM (inactive)
O=C1/C(=C/c2ccco2)Oc2c1ccc(O)c2CN1CCCCC1	10 µM
COc1ccc(-c2noc(CCC(=O)Nc3nc4ccccc4s3)n2)cc1	> 30 µM (inactive)
Brc1ccccc1C1=Nn2c(nnc2-c2ccco2)SC1	17.5 µM
CNc1nnc(-c2cc3ccccc3oc2=O)s1	8.99 µM
COc1ccc2nc(NC(=O)C3CCCN3S(=O)(=O)c3ccc(C)cc3)sc2c1 (stereo not drawn)	> 30 µM (inactive)
COc1ccccc1N1CC(C(=O)Nc2nc(C)cs2)CC1=O (stereo not drawn)	> 30 µM (inactive)

Compound	AC50
Nc1nc2n(n1)C(c1ccc(Cl)cc1)CC(c1ccc(F)cc1)N2 (stereo not drawn)	> 30 µM (inactive)
COc1ccccc1-n1c(O)c(C=NCc2ccc3c(c2)OCO3)c(=O)[nH]c1=O	31.3 µM
O=C(O)c1ccc(N=Cc2c(O)ccc3oc4c(c23)CCCC4)cc1	> 30 µM (inactive)
CSc1ccc(-c2cc(=O)c3ccccc3o2)cc1	> 30 µM (inactive)
CCOc1ccc(-c2nnc(N)o2)cc1	> 30 µM (inactive)
Cc1cc2nc(-c3cccnc3SCC(=O)NC(C)C)[nH]c2cc1C	> 30 µM (inactive)
COc1ccc(OCc2nc(N)nc(Nc3cccc(C)c3C)n2)cc1	> 30 µM (inactive)
Cc1ccc2cc(C#N)c(N3CCCN(C(=S)NCCCN(C)C)CC3)nc2c1	> 30 µM (inactive)
CCn1nc(-c2ccccc2)nc2c(=O)n(C)c(=O)nc1-2	27.3 µM
CC(=O)Nc1ccccc1C	> 30 µM (inactive)
COc1ccc(-n2c(O)c(C=NC3CC3)c(=O)[nH]c2=O)cc1	24.9 µM
CCCCCCN=C(C)c1c(O)n(CCCC)c(=O)[nH]c1=O	> 30 µM (inactive)
N#CCC(=O)Nc1sc2c(c1C(N)=O)CCCC2	20.2 µM
Cc1noc(C)c1COc1cccc(C(=O)OC(C)C(=O)Nc2c(C)n(C)n(-c3ccccc3)c2=O)c1 (stereo not drawn)	> 30 µM (inactive)
Cc1ccc(NC(=O)CSCc2ccco2)cc1	> 30 µM (inactive)
O=C(O)c1cccc2c1C(=O)c1ccccc1C2=O	> 30 µM (inactive)
O=C(CCc1nnc(-c2ccc3c(c2)OCO3)o1)N1CCC(c2ccc(F)cc2)C1 (stereo not drawn)	10 µM
COC(=O)[C@@H](NC(=O)NCc1ccc(F)cc1)C(C)C	> 30 µM (inactive)
COc1ccc(/C=C2\Oc3cc(OCC(=O)N4CC(O)C[C@H]4C(=O)O)ccc3C2=O)cc1OC (stereo partly drawn)	> 30 µM (inactive)
COc1ccc2c3c(cccc13)C(=O)CC2	> 30 µM (inactive)
O=C(CSc1ncnc2sc3c(c12)CCC3)NCC1CCCO1 (stereo not drawn)	> 30 µM (inactive)
NC(=O)CSc1nc(C2CC2)nc2sc3c(c12)CCCC3	> 30 µM (inactive)

Compound	AC50
COc1ccc(-c2nc3ncccn3c2Nc2ccccc2)cc1	> 30 µM (inactive)
COc1ccc(CCNc2nc(C)cc(C)n2)cc1OC	> 30 µM (inactive)
CCc1ccc(/C=N/NC(=O)c2nnn(-c3nonc3N)c2C(C)C)cc1	> 30 µM (inactive)
Cc1ccc(S(=O)(=O)Nc2ccc(O)c3cccnc23)cc1	> 30 µM (inactive)
CCOc1cc(/C=C2\SC(N)=NC2=O)ccc1O	22.9 µM
CCOC(=O)c1ccc(NC(=S)NCCc2ccccc2)cc1	> 30 µM (inactive)
COc1ccc(Cl)cc1C(=O)Nc1ccc(NC(=O)c2ccco2)cc1	> 30 µM (inactive)
Clc1cncc(Cl)c1N/N=C/c1ccncc1	> 30 µM (inactive)
COc1ccc(Br)cc1C(=O)Nc1ccc(NC(=O)c2ccco2)cc1	> 30 µM (inactive)
COc1ccccc1Nc1nc(C)cc(C)n1	> 30 µM (inactive)
COc1ccc2nc(SCC(=O)Nc3nccs3)[nH]c2c1	7.82 µM
COc1cc2c(cc1OC)-c1nnc(C)n1C1(CCCC1)C2	30.2 µM
COc1ccc(-c2cnc(N)nc2-c2ccc(OC)cc2O)cc1	9.75 µM
Cc1ccc(NC(=S)Nc2ccc3cn[nH]c3c2)c(C)c1	> 30 µM (inactive)
N#Cc1cnn2c3c(cnc12)C(=O)N1CCc2ccccc2C1C3 (stereo not drawn)	> 30 µM (inactive)
Cc1ccc(N(CC(O)CN2CCCCC2)S(=O)(=O)c2ccccc2)cc1 (stereo not drawn)	> 30 µM (inactive)
CC(C)Nc1nc(NC(C)C)nc(C(=O)OCCO)n1	> 30 µM (inactive)
Cc1nc(N2CCOCC2)nc(N2CCCCC2)c1[N+](=O)[O-]	> 30 µM (inactive)
COc1ccc(CC(=O)N2CCOCC2)cc1OC	> 30 µM (inactive)
O=C(N/N=C/c1cccnc1)c1cc2c(ccc3ccccc32)o1	> 30 µM (inactive)
